The text below walks through data of EP4818168A1, “FUSED RING COMPOUND, PHARMACEUTICAL COMPOSITION THEREOF AND USE THEREOF” (priority 2023, dated 2025).

One data set concerns the target T1, AURKA (Homo sapiens, UniProt O14965).
T1 construct: endogenous in cells; host or cells: Jurkat cells
T1 sequence (O14965 1-403): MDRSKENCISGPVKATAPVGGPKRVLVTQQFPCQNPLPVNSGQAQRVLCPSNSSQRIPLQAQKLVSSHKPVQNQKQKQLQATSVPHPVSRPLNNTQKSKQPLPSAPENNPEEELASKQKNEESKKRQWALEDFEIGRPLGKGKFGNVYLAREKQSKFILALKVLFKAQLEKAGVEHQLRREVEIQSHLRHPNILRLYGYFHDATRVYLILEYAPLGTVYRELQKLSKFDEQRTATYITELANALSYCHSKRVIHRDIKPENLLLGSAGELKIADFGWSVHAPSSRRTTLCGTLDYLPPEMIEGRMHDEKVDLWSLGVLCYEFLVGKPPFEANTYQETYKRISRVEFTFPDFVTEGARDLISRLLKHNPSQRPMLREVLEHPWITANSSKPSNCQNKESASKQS
The format is cell-based. As to conditions: Jurkat cells, 24 h. The method in brief:
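Jurkat cells seeded at 1×10^6 cells/500 µL and treated with compound; lysates run on SDS-PAGE, blotted to nitrocellulose and probed overnight at 4°C for AURKA. Chemiluminescent or fluorescent band intensity fitted to a curve to give DC50 for protein degradation.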

For a further data set, the system named is HCC1806 cells. In words: CTG assay of compound inhibition on cell viability (HCC1806 cells). The note with it: Homo sapiens, HCC1806, 144 h, read-out: IC50 in HCC1806 Cells. It counts as cell-based. A digest of the protocol:
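HCC1806 cells in RPMI1640 + 10% FBS were exposed to serially diluted compound (0.1% DMSO final) for 6 days at 37°C, 5% CO2. Viability was read as CellTiter-Glo luminescence (ATP) and normalised to DMSO and medium controls. IC50 came from a nonlinear-regression dose-survival curve.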

A further data set relates to H82 cells. The experiment in a line: cells. The format is cell-based. As to conditions: Homo sapiens. The method in brief: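 H82 cells in RPMI1640 + 10% FBS exposed to compound (0.1% DMSO final) for 6 days at 37 °C, 5% CO2. Viability read by CellTiter-Glo ATP luminescence, normalised to DMSO and medium controls; IC50 from nonlinear regression of the dose–survival curve.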

The next data set in a line: Mouse PK study. The format is in vivo. The note with it: male CD1 mice; for C0/Cmax / half-life / AUC(0-t) at 24 h / clearance / Vd / Tmax: plasma; for half-life / AUC(0-t) at 24 h / clearance / Vd / Tmax: mouse; for AUC(0-t) at 24 h: read-out: AUC0-24; for clearance: read-out: CLp; for Vd: read-out: Vss. Here is the method: Male CD1 mice (5-8 weeks old) were administered intravenously (IV) at a dose of 1 mg/kg by tail vein bolus or orally (PO) at doses of 10 mg/kg and 40 mg/kg by gavage. The compound was formulated in a vehicle of 10% DMSO + 10% Solutol HS15 + 80% saline. All animals were given free access to food and water during the experiment. […] Blood samples were centrifuged at 3500 g for 5 min, and the resulting plasma was analyzed by an LC-MS/MS method. The PK parameters were calculated using WinNonlin software (Phoenix®, version 8.3) through non-compartmental analysis methods.

Where two headings read alike, the source gives them in different places.

As usually defined, the IC50 is the concentration that gives 50% inhibition. Take `O=C1CCN(c2cnc(N3CCC4(CC3)CC(NC(=O)c3ccc(Nc5ncc6c(n5)-c5ccc(Cl)cc5C(c5c(F)cccc5F)=NC6)cc3)C4)s2)C(=O)N1` [Compound A81]: at AURKA (Table 1), the “Percentage of AURKA Degradation Induced by 100 nM Compound in Jurkat Cells” value (shortened to “Percentage … by 100 nM Compound in Jurkat Cells”) is reported as “+++ (Degradation > 70%)” and the “Percentage of AURKA Degradation Induced by 1 µM Compound in Jurkat Cells” value (shortened to “Percentage … by 1 µM Compound in Jurkat Cells”) is “+++ (Degradation > 70%)”. Further, the IC50 in the data set on HCC1806 cells is < 1 µM.

As usually defined, the half-life is the time in which the quantity being followed falls by half. Higher therefore signals slow decline. A word on the Tmax: it is the time at which the peak concentration occurs. As to `O=C1CCN(c2ccc(N3CCO[C@H](C(=O)N4CCN(c5ccc(Nc6ncc7c(n6)-c6ccc(Cl)cc6C(c6c(F)cccc6F)=NC7)cc5)CC4)C3)nc2)C(=O)N1` [Compound A307], the half-inhibitory concentration (IC50) in the data set with H82 cells (NCI-H82, H82 cells, 4000 cells/well, CellTiter-Glo, read-out: IC50 in H82 Cells) was < 1 µM. In addition, at AURKA (Table 2), the “Percentage … by 100 nM Compound in Jurkat Cells” value is “+++ (Degradation > 70%)” and the “Percentage … by 1 µM Compound in Jurkat Cells” value is “+++ (Degradation > 70%)”. In the data set “Mouse PK study” (IV 1 mg/kg), the C0/Cmax was determined as 1.527 µg/mL, the half-life was 2.28 h, the AUC(0-t) at 24 h was determined as 2.45 µg·h/mL and the clearance amounted to 0.38 L/h/kg. In addition, the Vd in the data set “Mouse PK study” (IV 1 mg/kg) was 1.04 L/kg. Further, in the data set “Mouse PK study” (PO 10 mg/kg), the F is 79.7%, the C0/Cmax is 2.46 µg/mL, the Tmax was 2 h and the half-life was 2.41 h. For the same compound, in the data set “Mouse PK study” (PO 10 mg/kg), the AUC(0-t) at 24 h turned out to be 19.5 µg·h/mL. Further, in the data set “Mouse PK study” (PO 40 mg/kg), the F was 80.6%, the C0/Cmax was found to be 7.283 µg/mL, the time of peak concentration (Tmax) worked out at 3.33 h and the half-life was 2.37 h. Besides, the AUC(0-t) at 24 h in the data set “Mouse PK study” (PO 40 mg/kg) worked out at 78.9 µg·h/mL.

Take `O=C1CCN(c2ccc(N3CCC4(CC3)CC(N3CCN(C56CC(Nc7ncc8c(n7)-c7ccc(Cl)cc7C(c7c(F)cccc7F)=NC8)(C5)C6)C(=O)C3)CO4)nc2)C(=O)N1` (stereo not drawn) [Compound A321]: the IC50 in the data set with H82 cells (NCI-H82, read-out: IC50 in H82 Cells) is < 1 µM. At AURKA (Table 2), the “Percentage … by 100 nM Compound in Jurkat Cells” value is “+++ (Degradation > 70%)” and the “Percentage … by 1 µM Compound in Jurkat Cells” value is given as “+++ (Degradation > 70%)”. Also, in the data set “Mouse PK study” (IV 1 mg/kg), the C0/Cmax is 1.307 µg/mL, the half-life is 1.89 h, the AUC(0-t) at 24 h worked out at 2.63 µg·h/mL and the clearance came to 0.37 L/h/kg. For the same compound, the Vd in “Mouse PK study” (IV 1 mg/kg) came out at 0.97 L/kg. Moreover, in the data set “Mouse PK study” (PO 10 mg/kg), the F worked out at 157%, the C0/Cmax amounted to 4.007 µg/mL, the Tmax amounted to 3.33 h and the half-life is 2.13 h. For the same compound, in “Mouse PK study” (PO 10 mg/kg), the AUC(0-t) at 24 h came to 41.4 µg·h/mL. In the data set “Mouse PK study” (PO 40 mg/kg), the F amounted to 130%, the C0/Cmax was determined as 13.233 µg/mL, the time of peak concentration (Tmax) worked out at 3.33 h and the half-life was 1.97 h. Also, the AUC(0-t) at 24 h in the data set “Mouse PK study” (PO 40 mg/kg) was determined as 137 µg·h/mL.

As for `COc1cc(Nc2ncc3c(n2)-c2ccc(Cl)cc2C(c2c(F)cccc2OC)=NC3)ccc1C(=O)O` [alisertib, reference compound], on AURKA (Table 1), the “Percentage … by 100 nM Compound in Jurkat Cells” value is given as “+ (Degradation ≤ 30%)” and the “Percentage … by 1 µM Compound in Jurkat Cells” value is listed as “+ (Degradation ≤ 30%)”. Also, the half-maximal inhibitory concentration (IC50) in the data set on HCC1806 cells is < 1 µM.
